{"source": "patent US20130022558A1", "about": "“Methods For Imrproving the Appearance of Hyperpigmented Spot(s) and Skin Tone” (priority 2011, published 2013)", "system": "hyperpigmented spots on facial skin", "assay": "In vivo testing for hyperpigmented spot reduction (melanin Spot Area Fraction, split face, image analysis)", "set-up": "species or system human subjects", "conditions": "baseline to Week 8, Beijing, approx. January 21 to March 21; compared to the vehicle", "source_text": "The 270 subjects were screened according to inclusion/exclusion criteria which included the following:\nIs willing to refrain from sun exposure by using supplied UV lotion and physical UV blocks, such as a hat, to avoid facial sunburn, tanning or wind burn.\n• 1. […] Two hundred and seventy subjects were recruited for the study.", "data": [{"smiles": "NC(=O)c1cccnc1", "note": "[naicinamide, niacinamide]", "values": [{"measurement": "effect on seasonal skin darkening, in words", "value": "mitigated the effects of seasonal skin darkening"}]}]}
